Assay results reported in patent publication US12250947B2, “Substituted azaspiro-cycles as herbicides” (SYNGENTA CROP PROTECTION AG, priority 2019, dated 2025).

Experiments:
Type in all cases: in vivo
[1] = test system: Setaria faberi (SETFA); experiment: Herbicidal glasshouse test, pre-emergence, SETFA; conditions: 250 g/Ha, evaluated after 13 days
Method: (§1) Seeds of a variety of test species are sown in standard soil in pots (Lolium perenne (LOLPE), Setaria faberi (SETFA), Alopecurus myosuroides (ALOMY), Echinochloa crus-galli (ECHCG), Avena fatua (AVEFA)). […] Compounds are applied at 250 g/h. The test plants are then grown in a glasshouse under controlled conditions in a glasshouse (at 24/16° C., day/night; 14 hours light; 65% humidity) and watered twice daily. After 13 days for pre and post-emergence, the test is evaluated for the percentage damage caused to the plant. […] NT=not tested.

[2] = test system: Echinochloa crus-galli (ECHCG); experiment: Herbicidal glasshouse test, pre-emergence, ECHCG; conditions: 250 g/Ha, evaluated after 13 days
Method: as §1

[3] = test system: Avena fatua (AVEFA); experiment: Herbicidal glasshouse test, pre-emergence, AVEFA; conditions: 250 g/Ha, evaluated after 13 days
Method: as §1

[4] = test system: Avena fatua (AVEFA); experiment: Herbicidal glasshouse test, post-emergence, AVEFA; conditions: 250 g/Ha, evaluated after 13 days
Method: as §1

[5] = test system: Alopecurus myosuroides (ALOMY); experiment: Herbicidal glasshouse test, post-emergence, ALOMY; conditions: 250 g/Ha, evaluated after 13 days
Method: as §1

[6] = test system: Lolium perenne (LOLPE); experiment: Herbicidal glasshouse test, pre-emergence, LOLPE; conditions: 250 g/Ha, evaluated after 13 days
Method: as §1

[7] = test system: Lolium perenne (LOLPE); experiment: Herbicidal glasshouse test, post-emergence, LOLPE; conditions: 250 g/Ha, evaluated after 13 days
Method: as §1

[8] = test system: Alopecurus myosuroides (ALOMY); experiment: Herbicidal glasshouse test, pre-emergence, ALOMY; conditions: 250 g/Ha, evaluated after 13 days
Method: as §1

[9] = test system: wheat crop plants; experiment: Crop phytotoxicity comparison, post-emergence, wheat
Method: (§2) Seeds of a variety of test species are sown in standard soil in pots (Lolium perenne (LOLPE), Setaria faberi (SETFA), Alopecurus myosuroides (ALOMY), Echinochloa crus-galli (ECHCG), Avena fatua (AVEFA)). After cultivation for one day (pre-emergence) or after 8 days cultivation (post-emergence) under controlled conditions in a glasshouse (at 24/16° C., day/night; 14 hours light; 65% humidity), the plants are sprayed with an aqueous spray solution derived from the formulation of the technical active ingredient in acetone/water (50:50) solution containing 0.5% Tween 20 (polyoxyethelyene sorbitan monolaurate, CAS RN 9005-64-5). Compounds are applied at 250 g/h. The test plants are then grown in a glasshouse under controlled conditions in a glasshouse (at 24/16° C., day/night; 14 hours light; 65% humidity) and watered twice daily. After 13 days for pre and post-emergence, the test is evaluated for the percentage damage caused to the plant. The biological activities are shown in the following table on a five-point scale (5=80-100%; 4=60-79%; 3=40-59%; 2=20-39%; 1=0-19%). NT=not tested.
(§3) Using procedures outlines above, wheat and barley crop plants are treated, post-emergence with compounds A1 or A4 of the present invention or comparator compound C1 (Compound A-38 from WO2014/096289) at the application rates indicated. The compounds were also applied in conjunction with the safener compound cloquintocet-mexyl (CQC) at 50 g/ha.

[10] = test system: Echinochloa crus-galli (ECHCG); experiment: Herbicidal glasshouse test, post-emergence, ECHCG; conditions: 250 g/Ha, evaluated after 13 days
Method: as §1

[11] = test system: Setaria faberi (SETFA); experiment: Herbicidal glasshouse test, post-emergence, SETFA; conditions: 250 g/Ha, evaluated after 13 days
Method: as §1

[12] = test system: barley crop plants; experiment: Crop phytotoxicity comparison, post-emergence, barley
Method: as §2, §3

Compound: CC#Cc1cc(C)c(C2C(=O)CC3(CCN(C(=O)C(C)=O)CC3)CC2=O)c(C)c1 [Compound A1, 9-(2,6-dimethyl-4-prop-1-ynyl-phenyl)-3-(2-oxopropanoyl)-3-azaspiro[5.5]undecane-8,10-dione]
- percentage damage caused to the plant, five-point scale, SETFA [1]: 5 (5=80-100%)
- percentage damage caused to the plant, five-point scale, ECHCG [2]: 5 (5=80-100%)
- percentage damage caused to the plant, five-point scale, AVEFA [3]: 5 (5=80-100%)
- percentage damage caused to the plant, five-point scale, AVEFA [4]: 5 (5=80-100%)
- percentage damage caused to the plant, five-point scale, ALOMY [5]: 5 (5=80-100%)
- percentage damage caused to the plant, five-point scale, LOLPE [6]: 5 (5=80-100%)
- percentage damage caused to the plant, five-point scale, LOLPE [7]: 5 (5=80-100%)
- percentage damage caused to the plant, five-point scale, ALOMY [8]: 5 (5=80-100%)
- % phytotoxicity observed, Wheat ([9]; rate 30 g/ha): 0%
- % phytotoxicity observed, Wheat ([9]; rate 60 g/ha): 10%
- % phytotoxicity observed, Wheat ([9]; rate 60 g/ha + safener cloquintocet-mexyl (CQC) at 50 g/ha): 0%
- damage to the wheat and barley crops compared to prior art compound C1 ([9]; wheat and barley crops, summary of Table B3): significantly less damaging
- percentage damage caused to the plant, five-point scale, ECHCG [10]: 5 (5=80-100%)
- percentage damage caused to the plant, five-point scale, SETFA [11]: 5 (5=80-100%)
- % phytotoxicity observed, Barley ([12]; rate 30 g/ha): 0%
- % phytotoxicity observed, Barley ([12]; rate 60 g/ha): 0%
